According to US11903958B2, “Therapeutic agents and methods of producing same” (GLYCOSYNNOVATIONS PTY LTD, priority 2016, dated 2024):

Assays:
[1] = target: recombinant human IL-13 (Homo sapiens, UniProt P35225); assay: TF-1 cell proliferation bioassay with rhIL-13; type: cell-based; conditions: rhIL-13 4 ng/ml; inhibitor 10 μg/ml and 2.5 μg/ml; 48 hours; FIG. 1
Procedure: The various simplified sulphated glycoconjugates inhibited the proliferation of an IL-13 responsive cell line to differing degrees. This occurs at very low doses and is believed not to be due to a toxic effect of the glycoconjugates because other, similarly sulfated polysaccharides (e.g. sucrose octasulfate), at the same concentrations of IL-13 and polysaccharide have no effect. These experiments utilize the TF-1 cells that are grown in 2 ng/ml recombinant human (rh) GM-CSF. TF-1 cells were originally established from a bone marrow sample from a person with severe pancytopenia. These cells are dependent on IL-3 or GM-CSF for long term growth and are responsive to a variety of human cytokines including IL-13.
(§1) Briefly, proliferation assays were carried out in 96-well microplates suitable for such assays. […] When the effect of the different simplified sulfated glycoconjugates was measured, the wells also contained various concentrations of these molecules (10 μg/ml and 2.5 μg/ml) and the rhIL-13 concentration was held constant at 4 ng/ml. The cells proliferated for 48 hours, after which the number of cells present was quantified by staining with 20 μL per well of the CellTiter 96 Aqueous One reagent was incubated with TF1 cells for the last 3.5 to 4 hours of culture and then absorbance was read at 490 nm on an Enspire Multimode plate reader (PerkinElmer).

[2] = target: T1, recombinant human IL-4 (Homo sapiens, UniProt P05112); assay: TF-1 cell proliferation bioassay with rhIL-4; type: cell-based; conditions: rhIL-4 4 ng/ml; inhibitor 10 μg/ml and 2.5 μg/ml; 48 hours; FIG. 3
T1 sequence (P05112 25-153): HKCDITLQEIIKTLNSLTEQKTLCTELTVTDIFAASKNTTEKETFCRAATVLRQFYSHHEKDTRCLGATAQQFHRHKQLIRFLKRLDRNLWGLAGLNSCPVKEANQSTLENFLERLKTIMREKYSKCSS
Procedure: The various simplified sulphated glyconjugates inhibited the proliferation of an IL-4 responsive cell line to differing degrees. This occurs at very low doses and is not due to a toxic effect of the glycoconjugate because other, similarly sulfated polysaccharides (sucrose octasulfate), at the same concentrations of IL-4 and polysaccharide have no effect. These experiments utilize the TF-1 cells that are grown in 2 ng/ml recombinant human (rh) GM-CSF. TF-1 cells were originally established from a bone marrow sample from a person with severe pancytopenia. These cells are dependent on IL-3 or GM-CSF for long term growth and are responsive to a variety of human cytokines including human IL-4.
as §1, with “rhIL-4” for “rhIL-13”

Chain of recombinant human IL-13 (P35225 25-146): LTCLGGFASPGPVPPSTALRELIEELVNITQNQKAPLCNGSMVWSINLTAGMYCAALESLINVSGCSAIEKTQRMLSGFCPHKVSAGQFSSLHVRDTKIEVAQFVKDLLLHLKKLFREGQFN

O=S(=O)(O)OC[C@H]1O[C@@](COS(=O)(=O)O)(O[C@H]2O[C@H](COS(=O)(=O)O)[C@@H](OS(=O)(=O)O)[C@H](OS(=O)(=O)O)[C@H]2OS(=O)(=O)O)[C@@H](OS(=O)(=O)O)[C@@H]1OS(=O)(=O)O [sucrose octasulfate]
inhibition of IL-13 stimulated TF-1 cell proliferation [1]: no effect
inhibition of IL-4 stimulated TF-1 cell proliferation [2]: no effect
